Remaining binding data for one molecule are collected here from publication PMC7206119, “RIP1 inhibition blocks inflammatory diseases but not tumor growth or metastases” (Cell Death and Differentiation, 2019).

Targets include MAP3K1 (Homo sapiens, UniProt Q13233); LIMK2 (Homo sapiens, UniProt P53671); MARK3 (Homo sapiens, UniProt P27448); NEK2 (Homo sapiens, UniProt P51955); ERBB2 (Homo sapiens, UniProt P04626); EGFR(G719C) (Homo sapiens, UniProt P00533, G719C); PIKFYVE (Homo sapiens, UniProt Q9Y2I7); MST1R (Homo sapiens, UniProt Q04912); MAP4K2 (Homo sapiens, UniProt Q12851); NEK1 (Homo sapiens, UniProt Q96PY6); PIK3C2G (Homo sapiens, UniProt O75747); MTOR (Homo sapiens, UniProt P42345); TXK (Homo sapiens, UniProt P42681).

Common to all, as to assay: biochemical
Set-up in all cases: DiscoverX kinase panel, active-site competition binding (KINOMEscan type), percent of control at one concentration
What all share (conditions): competition binding, percent of control

Another experiment deals with T1, ADCK3 (Homo sapiens, UniProt Q8NI60).
T1 construct: gene COQ8A

In a further experiment the target is T2, PYK2 (Homo sapiens, UniProt Q14289).
T2 construct: gene PTK2B

The target in the next experiment is T3, ADCK4 (Homo sapiens, UniProt Q96D53).
T3 construct: gene COQ8B

Experiment [1] deals with T4, RSK3(Kin.Dom.2-C-terminal) (Homo sapiens, UniProt Q15349).
T4 construct: gene RPS6KA2; Kin.Dom.2-C-terminal
T4 sequence (Q15349 whole entry): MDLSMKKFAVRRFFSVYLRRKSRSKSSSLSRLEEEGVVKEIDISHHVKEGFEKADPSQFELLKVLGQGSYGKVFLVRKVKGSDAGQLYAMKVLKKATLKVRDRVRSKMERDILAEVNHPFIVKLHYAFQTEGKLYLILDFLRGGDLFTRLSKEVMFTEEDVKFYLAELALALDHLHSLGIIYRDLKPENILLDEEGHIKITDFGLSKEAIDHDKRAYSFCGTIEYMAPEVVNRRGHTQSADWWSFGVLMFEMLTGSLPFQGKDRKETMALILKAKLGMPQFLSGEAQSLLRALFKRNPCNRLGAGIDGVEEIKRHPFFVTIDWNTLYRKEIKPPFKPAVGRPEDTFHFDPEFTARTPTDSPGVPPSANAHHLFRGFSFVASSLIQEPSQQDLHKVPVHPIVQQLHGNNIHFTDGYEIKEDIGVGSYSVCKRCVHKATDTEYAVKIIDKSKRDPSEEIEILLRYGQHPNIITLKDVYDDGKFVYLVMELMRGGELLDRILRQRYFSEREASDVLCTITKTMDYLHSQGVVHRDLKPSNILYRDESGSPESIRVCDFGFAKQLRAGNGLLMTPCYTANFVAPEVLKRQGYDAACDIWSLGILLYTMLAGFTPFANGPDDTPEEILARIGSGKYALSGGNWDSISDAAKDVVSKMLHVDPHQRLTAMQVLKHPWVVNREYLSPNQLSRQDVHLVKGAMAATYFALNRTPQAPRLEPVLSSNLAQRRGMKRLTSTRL

In experiment [2] the target is T5, ABL1(Q252H)-nonphosphorylated (Homo sapiens, UniProt P00519, Q252H).
T5 construct: nonphosphorylated

Another experiment addresses T6, LZK (Homo sapiens, UniProt O43283).
T6 construct: gene MAP3K13

Experiment [3] deals with T7, TYK2(JH2domain-pseudokinase) (Homo sapiens, UniProt P29597).
T7 construct: JH2domain-pseudokinase
T7 sequence (P29597 whole entry): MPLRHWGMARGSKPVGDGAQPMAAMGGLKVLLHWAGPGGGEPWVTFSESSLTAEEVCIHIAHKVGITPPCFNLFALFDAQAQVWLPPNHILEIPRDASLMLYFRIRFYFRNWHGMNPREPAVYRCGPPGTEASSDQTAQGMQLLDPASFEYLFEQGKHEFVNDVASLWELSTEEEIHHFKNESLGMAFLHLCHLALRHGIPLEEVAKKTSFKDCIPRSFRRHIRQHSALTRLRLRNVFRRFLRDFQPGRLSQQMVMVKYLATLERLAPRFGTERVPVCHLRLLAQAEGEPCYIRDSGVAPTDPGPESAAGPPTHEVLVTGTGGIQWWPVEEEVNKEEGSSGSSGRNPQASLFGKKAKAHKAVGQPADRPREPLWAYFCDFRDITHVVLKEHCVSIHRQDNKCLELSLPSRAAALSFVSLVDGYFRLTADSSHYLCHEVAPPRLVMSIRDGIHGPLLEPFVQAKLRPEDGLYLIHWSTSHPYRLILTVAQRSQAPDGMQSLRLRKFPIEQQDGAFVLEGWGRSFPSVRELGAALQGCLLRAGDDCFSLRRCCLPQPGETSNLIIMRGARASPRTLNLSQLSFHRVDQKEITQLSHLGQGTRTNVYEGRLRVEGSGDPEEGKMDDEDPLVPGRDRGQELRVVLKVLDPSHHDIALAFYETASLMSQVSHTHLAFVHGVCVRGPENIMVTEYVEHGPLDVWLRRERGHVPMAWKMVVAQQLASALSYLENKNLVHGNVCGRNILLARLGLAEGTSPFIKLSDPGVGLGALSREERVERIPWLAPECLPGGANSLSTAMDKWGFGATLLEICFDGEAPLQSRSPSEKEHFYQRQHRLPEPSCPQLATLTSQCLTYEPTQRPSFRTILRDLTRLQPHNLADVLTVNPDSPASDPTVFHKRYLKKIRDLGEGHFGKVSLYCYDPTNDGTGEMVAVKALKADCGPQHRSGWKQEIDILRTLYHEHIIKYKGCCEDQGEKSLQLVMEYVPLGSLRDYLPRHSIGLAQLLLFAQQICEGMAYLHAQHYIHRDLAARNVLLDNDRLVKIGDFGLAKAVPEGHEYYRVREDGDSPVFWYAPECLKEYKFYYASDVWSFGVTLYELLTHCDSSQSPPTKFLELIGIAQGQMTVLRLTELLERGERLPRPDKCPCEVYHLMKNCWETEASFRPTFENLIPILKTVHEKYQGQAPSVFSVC

In the next experiment the target is T8, IKK-alpha (Homo sapiens, UniProt O15111).
T8 construct: gene CHUK

Chain of EGFR(G719C) (P00533 whole entry G719C): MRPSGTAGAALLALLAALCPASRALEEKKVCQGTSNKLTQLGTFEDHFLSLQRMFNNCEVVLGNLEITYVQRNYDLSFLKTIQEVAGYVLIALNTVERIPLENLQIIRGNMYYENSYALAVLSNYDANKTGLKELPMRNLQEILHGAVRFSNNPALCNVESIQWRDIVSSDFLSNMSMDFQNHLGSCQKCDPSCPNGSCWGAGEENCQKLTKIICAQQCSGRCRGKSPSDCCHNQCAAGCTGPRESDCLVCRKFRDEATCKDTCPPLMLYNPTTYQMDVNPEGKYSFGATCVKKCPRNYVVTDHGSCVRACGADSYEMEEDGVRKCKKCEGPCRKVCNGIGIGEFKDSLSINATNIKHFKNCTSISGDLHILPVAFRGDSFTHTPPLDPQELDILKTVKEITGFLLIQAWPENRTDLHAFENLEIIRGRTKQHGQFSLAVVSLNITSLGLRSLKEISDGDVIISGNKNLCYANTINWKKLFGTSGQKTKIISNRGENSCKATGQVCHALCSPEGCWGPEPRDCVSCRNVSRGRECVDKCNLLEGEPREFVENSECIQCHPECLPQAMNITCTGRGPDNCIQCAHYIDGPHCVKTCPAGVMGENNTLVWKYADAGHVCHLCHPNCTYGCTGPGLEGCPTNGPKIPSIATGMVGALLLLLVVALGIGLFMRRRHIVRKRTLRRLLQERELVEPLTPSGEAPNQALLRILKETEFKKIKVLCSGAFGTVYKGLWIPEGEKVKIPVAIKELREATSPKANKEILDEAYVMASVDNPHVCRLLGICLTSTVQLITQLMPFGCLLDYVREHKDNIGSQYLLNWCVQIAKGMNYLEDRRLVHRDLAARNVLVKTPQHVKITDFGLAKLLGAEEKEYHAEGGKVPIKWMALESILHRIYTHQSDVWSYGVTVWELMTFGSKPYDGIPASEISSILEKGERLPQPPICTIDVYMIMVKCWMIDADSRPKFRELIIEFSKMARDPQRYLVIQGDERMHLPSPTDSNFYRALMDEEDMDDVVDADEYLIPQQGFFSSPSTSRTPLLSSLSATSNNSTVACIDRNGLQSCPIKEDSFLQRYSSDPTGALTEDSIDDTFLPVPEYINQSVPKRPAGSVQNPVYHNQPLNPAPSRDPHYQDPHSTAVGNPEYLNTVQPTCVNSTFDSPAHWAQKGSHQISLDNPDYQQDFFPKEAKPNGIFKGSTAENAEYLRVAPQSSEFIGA
Chain of NEK2 (P51955 whole entry): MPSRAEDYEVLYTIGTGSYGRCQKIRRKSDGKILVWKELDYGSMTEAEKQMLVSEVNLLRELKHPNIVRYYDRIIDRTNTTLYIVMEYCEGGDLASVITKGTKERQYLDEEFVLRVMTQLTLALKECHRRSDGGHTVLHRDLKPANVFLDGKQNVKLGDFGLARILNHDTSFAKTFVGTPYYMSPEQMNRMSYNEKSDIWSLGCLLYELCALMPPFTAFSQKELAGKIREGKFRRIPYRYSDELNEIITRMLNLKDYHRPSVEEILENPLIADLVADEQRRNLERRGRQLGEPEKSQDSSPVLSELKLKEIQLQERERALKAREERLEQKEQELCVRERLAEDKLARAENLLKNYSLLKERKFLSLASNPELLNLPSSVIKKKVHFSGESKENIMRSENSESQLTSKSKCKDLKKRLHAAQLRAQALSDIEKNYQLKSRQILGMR
Chain of PIK3C2G (O75747 whole entry): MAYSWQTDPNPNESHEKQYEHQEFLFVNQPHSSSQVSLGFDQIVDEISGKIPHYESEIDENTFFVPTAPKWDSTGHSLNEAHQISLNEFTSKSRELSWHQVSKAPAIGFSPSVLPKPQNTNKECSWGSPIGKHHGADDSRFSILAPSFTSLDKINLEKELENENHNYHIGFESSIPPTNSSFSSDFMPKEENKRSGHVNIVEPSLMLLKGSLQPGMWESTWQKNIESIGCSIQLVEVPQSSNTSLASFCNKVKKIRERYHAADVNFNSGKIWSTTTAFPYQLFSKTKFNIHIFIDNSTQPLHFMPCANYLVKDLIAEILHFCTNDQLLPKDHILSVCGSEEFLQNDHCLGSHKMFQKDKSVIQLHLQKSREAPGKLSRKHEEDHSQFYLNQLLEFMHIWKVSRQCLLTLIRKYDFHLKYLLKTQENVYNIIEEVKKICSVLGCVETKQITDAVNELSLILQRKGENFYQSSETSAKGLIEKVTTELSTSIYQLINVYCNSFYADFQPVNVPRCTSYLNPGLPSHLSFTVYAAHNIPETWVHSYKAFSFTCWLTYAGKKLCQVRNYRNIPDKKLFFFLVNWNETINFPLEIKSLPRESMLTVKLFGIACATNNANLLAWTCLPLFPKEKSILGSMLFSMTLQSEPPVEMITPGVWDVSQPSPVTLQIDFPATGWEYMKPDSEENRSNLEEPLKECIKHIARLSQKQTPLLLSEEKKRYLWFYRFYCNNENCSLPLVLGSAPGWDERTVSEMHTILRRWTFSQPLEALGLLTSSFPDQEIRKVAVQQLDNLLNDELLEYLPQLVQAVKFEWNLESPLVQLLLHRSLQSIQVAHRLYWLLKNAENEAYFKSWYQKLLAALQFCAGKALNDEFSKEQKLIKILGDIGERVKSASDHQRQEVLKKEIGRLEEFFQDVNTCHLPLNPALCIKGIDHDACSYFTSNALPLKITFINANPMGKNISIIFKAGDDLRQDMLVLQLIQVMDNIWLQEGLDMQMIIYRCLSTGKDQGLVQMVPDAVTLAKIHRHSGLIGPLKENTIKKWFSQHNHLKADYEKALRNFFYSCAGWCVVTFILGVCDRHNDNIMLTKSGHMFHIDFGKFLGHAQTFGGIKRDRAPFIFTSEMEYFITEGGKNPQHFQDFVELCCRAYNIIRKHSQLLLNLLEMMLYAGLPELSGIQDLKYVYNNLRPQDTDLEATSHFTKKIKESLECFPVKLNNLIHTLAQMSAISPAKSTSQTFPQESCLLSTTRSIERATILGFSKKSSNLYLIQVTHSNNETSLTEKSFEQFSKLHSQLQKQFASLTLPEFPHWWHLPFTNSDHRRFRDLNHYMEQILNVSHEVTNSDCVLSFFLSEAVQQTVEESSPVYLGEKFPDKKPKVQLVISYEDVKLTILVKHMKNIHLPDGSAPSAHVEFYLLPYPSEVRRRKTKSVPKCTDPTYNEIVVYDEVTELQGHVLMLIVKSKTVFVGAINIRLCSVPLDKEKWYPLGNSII

`COc1cc2c(cn1)N(C)C(=O)[C@@H](NC(=O)c1nc3n(n1)[C@H](c1ccccc1)CC3)CC2` [GNE684, (S)-N-((S)-7-methoxy-1-methyl-2-oxo-2,3,4,5-tetrahydro-1H-pyrido[3,4-b]azepin-3-yl)-5-phenyl-6,7-dihydro-5H-pyrrolo[1,2-b][1,2,4]triazole-2-carboxamide]: the remaining binding at 10 µM on MAP3K1 was 90%; at ADCK3, 98%; on LIMK2, 32%; on PYK2, 92%; on MARK3, 100%; on NEK2, 92%. Moreover, the remaining binding at 10 µM was determined as 76% at ERBB2; 87% at EGFR(G719C); 100% at ADCK4; 100% on PIKFYVE; 94% on MST1R; 98% in experiment [1]. The remaining binding at 10 µM in experiment [2] stood at 68%; at LZK, 98%; on MAP4K2, 100%; in experiment [3], 100%; on NEK1, 100%; on PIK3C2G it was 100%. In addition, the remaining binding at 10 µM at MTOR, at TXK and at IKK-alpha was 100% each time.
